Assay results taken from PMC7959846, “Block of Voltage-Gated Sodium Channels by Atomoxetine in a State- and Use-dependent Manner” (Frontiers in Pharmacology, 2021).
Several values for one entry are separate records, joined by “and”; a condition that tells them apart may be missing. Identical values can stand only once.

What was measured:
hNav1.5 [1] = biological target: T1, hNav1.5 (Homo sapiens, UniProt Q14524); assay: Voltage dependence of activation, whole-cell patch clamp; type: cell-based; design: expressed in transfected cells; host or cells: tsA201 (HEK-293 derivative)
T1 sequence (Q14524 whole entry): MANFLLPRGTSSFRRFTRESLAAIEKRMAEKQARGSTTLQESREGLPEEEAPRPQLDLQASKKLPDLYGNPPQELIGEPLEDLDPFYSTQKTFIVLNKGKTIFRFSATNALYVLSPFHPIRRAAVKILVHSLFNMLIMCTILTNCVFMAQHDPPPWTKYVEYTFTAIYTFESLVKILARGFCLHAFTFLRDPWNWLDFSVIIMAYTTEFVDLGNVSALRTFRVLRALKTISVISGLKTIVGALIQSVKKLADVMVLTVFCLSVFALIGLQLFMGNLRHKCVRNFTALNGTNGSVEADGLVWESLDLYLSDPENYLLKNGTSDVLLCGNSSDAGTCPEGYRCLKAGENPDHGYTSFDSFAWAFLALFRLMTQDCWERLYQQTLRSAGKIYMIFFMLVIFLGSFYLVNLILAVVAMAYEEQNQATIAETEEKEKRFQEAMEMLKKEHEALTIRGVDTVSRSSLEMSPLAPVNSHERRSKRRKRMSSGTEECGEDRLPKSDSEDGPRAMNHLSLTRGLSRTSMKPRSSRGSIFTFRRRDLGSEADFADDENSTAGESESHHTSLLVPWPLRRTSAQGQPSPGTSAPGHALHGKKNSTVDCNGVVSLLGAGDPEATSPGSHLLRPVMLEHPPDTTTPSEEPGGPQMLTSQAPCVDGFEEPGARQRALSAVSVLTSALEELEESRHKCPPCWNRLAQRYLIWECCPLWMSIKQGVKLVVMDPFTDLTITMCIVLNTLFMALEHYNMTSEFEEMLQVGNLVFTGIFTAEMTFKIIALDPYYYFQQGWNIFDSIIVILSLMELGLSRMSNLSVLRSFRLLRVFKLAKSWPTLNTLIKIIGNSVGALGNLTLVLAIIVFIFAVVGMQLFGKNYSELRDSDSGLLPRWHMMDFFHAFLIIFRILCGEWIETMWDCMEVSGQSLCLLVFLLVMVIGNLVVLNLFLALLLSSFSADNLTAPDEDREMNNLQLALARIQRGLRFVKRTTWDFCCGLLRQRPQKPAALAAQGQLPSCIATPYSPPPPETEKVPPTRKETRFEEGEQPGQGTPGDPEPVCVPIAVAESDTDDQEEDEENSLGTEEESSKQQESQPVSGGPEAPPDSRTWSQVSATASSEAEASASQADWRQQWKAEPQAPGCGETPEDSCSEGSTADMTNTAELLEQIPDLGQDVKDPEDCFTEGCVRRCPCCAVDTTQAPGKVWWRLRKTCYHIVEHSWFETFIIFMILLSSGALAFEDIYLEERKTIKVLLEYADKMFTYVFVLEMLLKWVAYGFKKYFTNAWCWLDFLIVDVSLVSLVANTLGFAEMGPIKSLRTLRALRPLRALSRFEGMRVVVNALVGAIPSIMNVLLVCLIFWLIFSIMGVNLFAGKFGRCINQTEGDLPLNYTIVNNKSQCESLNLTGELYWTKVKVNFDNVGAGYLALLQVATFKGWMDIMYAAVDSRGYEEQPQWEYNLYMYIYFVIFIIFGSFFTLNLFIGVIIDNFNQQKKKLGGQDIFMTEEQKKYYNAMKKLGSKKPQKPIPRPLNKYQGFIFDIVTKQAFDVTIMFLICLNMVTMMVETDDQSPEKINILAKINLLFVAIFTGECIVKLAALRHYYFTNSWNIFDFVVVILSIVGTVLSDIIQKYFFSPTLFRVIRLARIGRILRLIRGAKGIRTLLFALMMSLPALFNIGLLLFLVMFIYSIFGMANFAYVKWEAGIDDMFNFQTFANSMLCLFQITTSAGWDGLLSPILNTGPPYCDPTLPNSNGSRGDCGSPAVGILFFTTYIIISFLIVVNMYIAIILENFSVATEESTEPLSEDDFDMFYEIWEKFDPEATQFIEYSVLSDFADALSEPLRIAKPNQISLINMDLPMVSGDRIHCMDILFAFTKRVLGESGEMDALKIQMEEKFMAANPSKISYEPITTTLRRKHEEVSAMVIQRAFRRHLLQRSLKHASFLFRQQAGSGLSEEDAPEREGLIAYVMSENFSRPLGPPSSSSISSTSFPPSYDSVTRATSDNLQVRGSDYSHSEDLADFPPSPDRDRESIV

hNav1.5 [2] = biological target: T1, hNav1.5; assay: Interaction with the inactivated state: steady-state concentration-response relationship
Method: Concentration-inhibition curves for the estimation of Kr (IC50 at −140 mV; Figure 2) or Kapp (Figure 6) were fitted to the Hill equation ID/IC= 1/1+([D]/IC50)^n (1) ID and IC are the current amplitudes in the presence and absence of the drug (D). [D] is the concentration of the drug. IC50 represents the concentration of the blocker that causes 50% inhibition and n is the Hill coefficient.
The affinity to the inactivated state (Ki) was calculated according to ([Bean et al., 1983]) as: 1/Kapp= h/Kr+ (1−h)/Ki (6) Kapp is the apparent affinity estimated at a selected membrane potential at which the amount of non-inactivated channels is given by h (estimated from the corresponding inactivation curve).
Activations were repeated several times at each concentration to achieve steady-state condition (Figure 6A). The holding potential was chosen individually for each cell to be around half maximal inactivation according to a preceding estimation of availability. Before the test pulse a short recovery (100 ms at −160 mV) was carried out (inset to Figure 6A). From the concentration relationship apparent half maximal effective concentrations (Kapp) were calculated using Eq. 1 (Figure 6B). The affinity for the inactivated channel was then calculated according to Eq. 6 which considers the varying amount of inactivated channels in individual experiments.
Activations were carried out every 30 s using a holding potential at which the channels were partly inactivated (relative amount of available channels in this experiment: h = 0.81). Immediately before the activations a short recovery (100 m s) at −160 mV was intercalated (inset). Activations were repeated at each condition until a near stable current amplitude was achieved. (B) The apparent IC50 (IC50app) was calculated from the concentration-dependent decline of the current amplitudes. The affinity to the inactivated state was calculated considering the current amount of available channels according to Eq. 6.

hNav1.5 [3] = biological target: T1, hNav1.5; assay: Recovery from inactivation (double pulse protocols); type: cell-based; design: expressed in transfected cells; host or cells: tsA201 (HEK-293 derivative)
From the text: Current amplitudes were normalized to the maximum peak amplitude of INa in the absence and presence of atomoxetine. Recovery time constants were estimated from double or triple exponential fits according to: I/Imax = 1− a1*e^(−t/τ1) −a2*e^(−t/τ2)− a3*e^(−t/τ3) (10)
Recovery from inactivation was estimated with double pulse protocols using two different durations for the inactivating pulse: 500 ms and 10 s. The test pulse was applied after a variable time spent at the recovery potential of −140 mV (inset Figure 8). Using the short inactivation time of 500 ms, recovery occurred with two time constants. In the absence of atomoxetine about 90% of the channels recovered with a fast time constant (τ 1 = 2.2 ± 0.2 ms), representing recovering from fast inactivation. The remainder recovered with a slower time constant (τ 2 = 37.7 ± 15.6 ms), probably representing recovery from slow inactivation. In the presence of atomoxetine the time constant of the fast component was hardly extended whereas those of the slow time constant was prolongated with little or no change in the relative amount of the two components (Figure 8A, Table 2). […] Using an inactivation time of 10 s, recovery has to be fitted with triple exponential functions, separating the recovery process in a fast, intermediate and a slow component (Figure 8B). In the presence of atomoxetine a profound increase in all time constants resulted. Moreover, the component of the fast time constant decreased and that of the slow component increased in a concentration dependent manner while the amount of the intermediate component stayed almost constant (Table 3).
FIGURE 8 Recovery from inactivation (A) The relative amount of available channels after increasing duration of recovery at −140 mV is illustrated. Inactivation was performed at −20 mV for 500 ms. The pulse protocol is illustrated by the inset. Interval between individual measurements was 10 s and atomoxetine was applied at 3 and 10 µM. Solid lines represent fits with two exponential functions according to Eq. 10. (B) Otherwise identical protocol as in (A) but with the inactivation time set to 10 s. For data fitting, three exponentials were required. For fit parameters see Table 2, N = 5.

hNav1.5 [4] = biological target: T1, hNav1.5; assay: Voltage dependence of fast inactivation (500 ms prepulse); type: cell-based; design: expressed in transfected cells; host or cells: tsA201 (HEK-293 derivative); settings: for net drug-induced shift of half maximal fast inactivation (signed): N = 5
Method: Constraint throughout: ∑i=1nai=1 .
For establishing inactivation curves, the membrane potential was stepped to different prepulse potentials (from −140 to −45 mV; increment 5 mV) for 500 ms before channel activations were carried out by depolarizations to −20 mV. For estimation of inactivation parameters, the normalized peak currents were plotted vs. the prepulse potentials. Inactivation curves, characterized by inactivation midpoints and the curve slope were obtained by data fitting using Eq. 4. […] After a second control, atomoxetine was applied at a concentration of 3 and 10 µM (Figure 4A) For final evaluation of drug effects, first the endogenous shift was estimated for each cell individually by the difference between the two controls. […] We used a cell-specific endogenous shift instead of a global shift, as the endogenous shift is highly variable between individual cells.
FIGURE 4 Voltage dependence of fast inactivation (A) Data of a representative measurement series of normalized peak currents in the absence and presence of atomoxetine are shown. Solid lines represent fits according to Eq. 4.

hNav1.5 [5] = biological target: T1, hNav1.5; assay: Block development, interaction with the inactivated state: kinetic parameters (double-pulse protocol); settings: for remaining current at the longest inactivation time: prepulse −20 mV up to 32 s
From the text: The time constant (τ) of block development for the different concentrations of atomoxetine was estimated by single exponential fits of the form: I/Imax = S+ a1*e^(−t/τ1) (7) t denotes the time, a is the fraction of channels which is blocked, and S represents the residual current.
Association (kon in µM^−1s^−1) and dissociation rates (koff in s^−1) were estimated from the slope and the y-intercept of a linear regression where the inverse of the fast time constants (1/τ) was plotted vs. the drug concentration [D] […] 1/τ= koff+kon*[D] (8) The affinity for the inactivated state (Ki) was calculated according to: Ki= koff/kon (9)
Instead of this, we employed another double-pulse protocol in order to determine the time dependence of the interaction of atomoxetine with the inactivated state. The experimental scheme consisted of a conditioning prepulse to −20 mV for a variable duration (range: 0.002–32 s), a short recovery for 100 ms at −140 mV, followed by the test pulse to −20 mV (inset to Figure 5A). […] For estimation of rate constants the inverse of the time constants (1/τ) were plotted vs. the concentration of atomoxetine (Figure 5C).
The pulse protocol (inset) was applied in intervals of 20 s. The peak currents of the test pulse were normalized to the peak amplitude of the prepulse and plotted vs. its duration. Solid lines represent fits of single exponential functions to data obtained for control (open squares) or different concentrations of atomoxetine (B) Data normalized with respect to control (C) The inverse of the time constants of individual cells were plotted vs. the concentration of atomoxetine. […] N = 5.

hNav1.5 [6] = biological target: T1, hNav1.5; assay: Tonic block of hNav1.5 channels (resting state, holding potential −140 mV), whole-cell patch clamp in tsA201 cells; settings: N = 5
Method: The tsA201 cell line is a derivative of the human embryonic kidney cell line HEK-293 (ATCC#CRL1537, Merck KGaA, Darmstadt, Germany). tsA201 cells were cultured at 37°C in a humidified atmosphere at 95% air and 5% CO2 in MEM (minimum essential medium, Gibco, Eggenstein, Germany) supplemented with 50 U/ml penicillin, 50 μg/ml streptomycin (Gibco), 2 mM L-glutamine (Boehringer, Mannheim, Germany), and 10% fetal calf serum (Gibco). The cells were grown on polyornithine-coated culture dishes to 40% confluency and transfected using the TransFectin LipidReagent kit (Bio-Rad, München, Germany).
Briefly, tsA201 cells were used for experiments 24–48 h after transfection. Membrane currents were recorded in the whole-cell recording mode using an EPC-9 amplifier and Patchmaster software (v2x73; HEKA, Lambrecht, Germany ([Hamill et al., 1981])). Before recording, cells were rinsed twice with an extracellular standard solution containing (in mM): 140 NaCl, 5 KCl, 1.5 CaCl2, 10 glucose and 12 HEPES; adjusted to a final pH of 7.3. Patch pipettes were drawn from borosilicate glass with tip resistances of about 2 MΩ when filled with (in mM): 125 CsF, 10 NaF, 1 MgCl2, 10 EGTA, 10 HEPES; adjusted to a final pH of 7.2. To improve sealing, tips were briefly dipped into 2% dimethylsilane dissolved in dichloromethane. Unless otherwise stated, cells were held at a holding potential of −140 mV from which channel activation was elicited by brief depolarizing pulses to −20 mV of 5 ms duration. To minimize voltage errors, the series resistance was compensated up to 80%. Cells with currents larger than 6 nA were excluded from evaluation.
The medium in the dish (1.5 ml) was continuously exchanged using a "global" bath perfusion with the inflow set to 4.5 ml/min and the outflow removing any excess fluid. Reagents were applied locally to the cells by the L/M-SPS-8 superfusion system (List, Darmstadt, Germany). Switching between the 8 channels of the superfusion system was controlled by magnetic valves. The local inlet (tip of an eight-barrelled pipette) was positioned at a distance of 50–100 μm upstream and the local outlet at about 300 μm downstream of the patch pipette. A constant flow rate of control and test solutions (1 ml/min) was achieved by means of a pressure control system (MPCU-3, Lorenz, Göttingen, Germany). The time of solution exchange was estimated from the changes in the liquid junction potential to be about 1 ms. If not otherwise stated, drugs were preapplied for 20 s before starting the experiments.
Concentration-inhibition curves for the estimation of Kr (IC50 at −140 mV; Figure 2) or Kapp (Figure 6) were fitted to the Hill equation ID/IC= 1/1+([D]/IC50)^n (1) ID and IC are the current amplitudes in the presence and absence of the drug (D). [D] is the concentration of the drug. […]

hNav1.5 [7] = biological target: T1, hNav1.5; assay: Slow inactivation (10 s conditioning prepulse); settings: slow inactivation fit (Eq. 5); for V50_1: N = 5
Method: Voltage dependence of activation was calculated in two steps: First, changes in driving force owing to the different test potentials were considered by calculating the conductance g according to g = I/V−ENa (2) Thereafter, normalized data were fitted with a Boltzmann equation of the form: g/gmax= 1/1+e^(V50 − V/k) (3) Voltage dependence of fast inactivation were fit using a Boltzmann equation of the form: I/Imax= 1/1+ e^(V − V50/k) (4) In case of slow inactivation Eq. 4 was extended by a second term and the additional parameter (S) which considers the steady-state level of the incomplete inactivation. I/Imax=(1−S)(a1/1+ e^(V− V501/k1)+ a2/1+ e^(V− V502/k2))+ S (5) Abbreviations used for voltage-dependent parameters: V and V50i are the actual membrane potentials and the potentials at which half maximal current (I)/conductance (g) occur, respectively. ENa indicates the reversal potential which was experimentally determined for each cell. The slope factors are given by ki and the relative amount of the individual terms are represented by ai. Constraint throughout: ∑i=1nai=1 .
In a next set of experiments, we directly investigated for a possible interaction with the slow inactivated state. To this end, similar experiments as shown in Figure 4 were conducted with the following deviations: the duration of the conditioning prepulse was set to 10 s, and a recovery period (100 ms) at −160 mV was inserted immediately before the test pulse to eliminate or minimize the contribution from fast-inactivation. […] Another hallmark for an interaction with the slow inactivated state is an ongoing increase in inhibition in the potential range (V50_2) where slow inactivation is expected to occur. In order to evaluate this we renormalized the data in the presence of atomoxetine with their respective control (Figure 7B).
FIGURE 7 Interaction with the slow-inactivated state (A) Infrequent (interval: 30 s) channel activations by step depolarisations to −20 mV were elicited after long lasting (10 s) conditioning prepulses to different potentials (inset). A short (100 ms) recovery period at −160 mV was inserted immediately before the test pulse. Data of normalized peak currents are plotted vs. the prepulse potential. Solid lines are fits according to Eq. 5 for control (open squares) and atomoxetine (3 µM) (filled symbols). […] (B) Plot of renormalized data was obtained by dividing the drug values by control values.

hNav1.5 [8] = biological target: T1, hNav1.5; assay: Use-dependent interaction (high frequency stimulation trains); settings: for relative current amplitude of the 50th pulse related to the first pulse: 1 ms test pulse; for remaining current amplitude (use-dependence, pulse duration series): 10 Hz (Figure 9B)
Method: To investigate whether atomoxetine also interacts with the open channel, we first tested for a possible use-dependency. All these experiments were carried out at a holding potential of −140 mV and a test pulse to −20 mV with its duration set to 1 ms. This short activation time was chosen to minimize the time the channels spent in the inactivated state. After establishing stable baseline values using infrequent activations every 5 s (0.2 Hz) a train of high frequency stimulation (1, 3 10 Hz) was started. For evaluation, the peak current amplitude of each pulse was divided by the amplitude of the first response of the high frequency stimulation train. […] For quantification, the remaining current amplitudes of the 50th pulse were related to the first pulse. […] In order to analyse further if atomoxetine prefers an interaction with the open or fast inactivated state, we increased the test pulse duration up to a factor of 20.
FIGURE 9 Analysis for use-dependence at a pulsing frequency of 10 Hz (A) After establishing stable control responses (activations every 5 s), atomoxetine was preincubated for 20 s before test pulses (1 ms) were applied at a frequency of 10 Hz. […] The amplitudes which were obtained from the high frequency stimulation are related to the first pulse of each train.

hNav1.5 [9] = biological target: T1, hNav1.5; design: expressed in transfected cells; host or cells: tsA201 (HEK-293 derivative); method as in Poulin et al., 2014; settings: ref Poulin et al., 2014; cited from earlier work
WCW-mutant = test system: WCW-mutant; design: method as in Poulin et al., 2014; settings: ref Poulin et al., 2014; cited from earlier work
F1760C = test system: F1760C; design: method as in Poulin et al., 2014; settings: anaesthetic binding site; ref Poulin et al., 2014; cited from earlier work

CNCC[C@@H](Oc1ccccc1C)c1ccccc1 [atomoxetine]
slope of the activation curve (hNav1.5 [1]; 3 µM atomoxetine): 6.6 ± 0.6 mV
midpoint of the activation curve (half maximal activation) (hNav1.5 [1]; 3 µM atomoxetine, control −52.6 ± 3.5 mV): −54.5 ± 3.9 mV
midpoint of the activation curve (hNav1.5 [1]; 10 µM atomoxetine): −55.5 ± 4.1 mV
slope of the activation curve (hNav1.5 [1]; 10 µM atomoxetine): 6.9 ± 0.6 mV
IC50 (hNav1.5 [2]; Half-maximal effective concentrations (interaction with inactivated state), different experimental settings, abstract): 2000 to 3000 nM
Ki (hNav1.5 [2]; Ki (inactivated state), single experiment of Figure 6B, Eq. 6): 1850 nM
Ki (hNav1.5 [2]; affinity for the inactivated state (Ki), calculated from Kapp by Eq. 6, holding potential around half maximal inactivation, N = 5): 1590 ± 450 nM
IC50 (hNav1.5 [2]; apparent IC50 (IC50app), single experiment of Figure 6B, partly inactivated channels): 2270 nM
higher affinity for the inactivated state compared to the resting state (hNav1.5 [2]; depending on the applied protocol): about 50 fold
τ 1 (%) relative amount of component (hNav1.5 [3]; 3 µM, inactivation 10 s): 39.7 ± 2.2%
τ 1 (recovery time constant) (hNav1.5 [3]; 3 µM, inactivation 10 s): 5.8 ± 0.7 ms
τ 2 (%) relative amount of component (hNav1.5 [3]; 3 µM, inactivation 10 s): 22.7 ± 1.0%
τ 2 (recovery time constant) (hNav1.5 [3]; 3 µM, inactivation 10 s): 139 ± 37.2 ms
τ 3 (recovery time constant) (hNav1.5 [3]; 3 µM, inactivation 10 s): 3,524 ± 377 ms
τ 1 (%) relative amount of component (hNav1.5 [3]; 3 µM, inactivation 500 ms): 90.3 ± 2.0%
τ 2 (recovery time constant) (hNav1.5 [3]; 3 µM, inactivation 500 ms): 191.7 ± 74.2 ms
τ 1 (recovery time constant) (hNav1.5 [3]; 3 µM, inactivation 500 ms, recovery at −140 mV): 3.1 ± 0.2 ms
τ 1 (%) relative amount of component (hNav1.5 [3]; 10 µM, inactivation 10 s): 15.0 ± 1.6%
τ 1 (recovery time constant) (hNav1.5 [3]; 10 µM, inactivation 10 s): 12.4 ± 0.3 ms
τ 2 (%) relative amount of component (hNav1.5 [3]; 10 µM, inactivation 10 s): 17.2 ± 2.9%
τ 2 (recovery time constant) (hNav1.5 [3]; 10 µM, inactivation 10 s): 417 ± 152 ms
τ 3 (recovery time constant) (hNav1.5 [3]; 10 µM, inactivation 10 s): 4,859 ± 332 ms
τ 1 (%) relative amount of component (hNav1.5 [3]; 10 µM, inactivation 500 ms): 86.2 ± 1.8%
τ 1 (recovery time constant) (hNav1.5 [3]; 10 µM, inactivation 500 ms): 4.7 ± 0.3 ms
τ 2 (recovery time constant) (hNav1.5 [3]; 10 µM, inactivation 500 ms): 1,259 ± 351 ms
net shift in positive direction of fast inactivation midpoint (hNav1.5 [4]; 3 µM atomoxetine, 500 ms prepulse, corrected for endogenous shift): 0.3 mV
net drug-induced shift of half maximal fast inactivation (signed) (hNav1.5 [4]; 3 µM atomoxetine): +0.3 mV
negative shift of fast inactivation midpoint (net) (hNav1.5 [4]; 10 µM atomoxetine, 500 ms prepulse, corrected for endogenous shift): 0.9 mV
net drug-induced shift of half maximal fast inactivation (signed) (hNav1.5 [4]; 10 µM atomoxetine): −0.9 mV
Ki (hNav1.5 [5]): 2570 nM
remaining current at the longest inactivation time (hNav1.5 [5]; 3 µM atomoxetine, control 70.0 ± 14.0%): 32.6 ± 9.8%
remaining current at the longest inactivation time (hNav1.5 [5]; 10 µM atomoxetine): 11.5 ± 8.0%
time constant of block development (hNav1.5 [5]; 10 µM atomoxetine, single exponential fit, normalized to control): 4.3 ± 0.1 s
kon (hNav1.5 [5]; read-out: rate constant for association (kon)): 18500 M⁻¹ s⁻¹
koff (hNav1.5 [5]; read-out: rate constant for dissociation (koff)): 0.047 s⁻¹
IC50 (hNav1.5 [6]; half maximal effective concentration (Kr, IC50 at −140 mV; affinity for the resting state), drug preapplied 30 s): ~120000 nM and 120000 nM and 119000 nM
Hill coefficient (hNav1.5 [6]; tonic block): 1.47 ± 0.06
V50_2 (hNav1.5 [7]; 3 µM): −65.5 ± 2.8 mV
a1 (hNav1.5 [7]; 3 µM): 37.5 ± 18.7%
k1 (hNav1.5 [7]; 3 µM): 5.2 ± 0.4 mV
k2 (hNav1.5 [7]; 3 µM): 31.8 ± 1.9 mV
V50_1 (hNav1.5 [7]; 3 µM): −101.3 ± 0.3 mV
V50_2 (hNav1.5 [7]; 10 µM): −102.7 ± 3.9 mV
a1 (hNav1.5 [7]; 10 µM): 71.1 ± 19.7%
k1 (hNav1.5 [7]; 10 µM): 5.9 ± 0.2 mV
k2 (hNav1.5 [7]; 10 µM): 34.2 ± 4.7 mV
V50_1 (hNav1.5 [7]; 10 µM): −107.7 ± 0.2 mV
relative current amplitude of the 50th pulse related to the first pulse (hNav1.5 [8]; 1 Hz, 1 µM atomoxetine): 0.96 ± 0.01
relative current amplitude of the 50th pulse related to the first pulse (hNav1.5 [8]; 1 Hz, 3 µM atomoxetine): 0.89 ± 0.05
relative current amplitude of the 50th pulse related to the first pulse (hNav1.5 [8]; 1 Hz, 10 µM atomoxetine): 0.69 ± 0.09
relative current amplitude of the 50th pulse related to the first pulse (hNav1.5 [8]; 3 Hz, 1 µM atomoxetine): 0.95 ± 0.02
relative current amplitude of the 50th pulse related to the first pulse (hNav1.5 [8]; 3 Hz, 3 µM atomoxetine): 0.85 ± 0.07
relative current amplitude of the 50th pulse related to the first pulse (hNav1.5 [8]; 3 Hz, 10 µM atomoxetine): 0.61 ± 0.09
relative current amplitude of the 50th pulse related to the first pulse (hNav1.5 [8]; 10 Hz, 3 µM atomoxetine): 0.79 ± 0.03
relative current amplitude of the 50th pulse related to the first pulse (hNav1.5 [8]; 10 Hz, 10 µM atomoxetine): 0.48 ± 0.07
remaining current amplitude (use-dependence, pulse duration series) (hNav1.5 [8]; activation time 1 ms, 10 µM atomoxetine): 0.54 ± 0.03
remaining current amplitude (use-dependence, pulse duration series) (hNav1.5 [8]; activation time 5 ms, 10 µM atomoxetine): 0.43 ± 0.03
remaining current amplitude (use-dependence, pulse duration series) (hNav1.5 [8]; activation time 20 ms, 10 µM atomoxetine): 0.37 ± 0.09

CNCCC(Oc1ccc(C(F)(F)F)cc1)c1ccccc1 (stereo not shown) [fluoxetine]
ratio of affinity at holding potential −140 mV (resting state) versus −90 mV (hNav1.5 [9]): less than 10 fold
ratio for the interaction with the resting state (peak current) vs. open channel (late current) (WCW-mutant): 3 fold
ratio in affinity between F1760C and wildtype (F1760C): about 2 fold
